This is an account of results in US8119614B2, “Substitution derivatives of N6-benzyladenosine, methods of their preparation, their use for preparation of drugs, cosmetic preparations and growth regulators, pharmaceutical preparations, cosmetic preparations and growth regulators containing these compounds” (Ustav Experimentalni Botaniky Akademie Ved Ceske Republiky, priority 2002, dated 2012).

In assay [1] the test system is tobacco callus Nicotiana tabacum L. cv. Wisconsin 38. Nature of the assay: Growth of cytokinin-dependent tobacco callus. The assay is classed as cell-based. As to conditions: for Activity (%) [10^−5 mol · l^−1 BAP = 100%]: callus growth, at concentration with highest activity; for Concentration with highest activity: fresh callus weight after four weeks. On the procedure:
Cytokinin-dependent tobacco callus Nicotiana tabacum L. cv. Wisconsin 38 was maintained at 25° C. in darkness on modified Murashige-Skoog medium, containing per 1 liter: 4 μmol nicotinic acid, 2.4 μmol pyridoxine hydrochloride, 1.2 μmol thiamine, 26.6 μmol glycine, 1.37 μmol glutamine, 1.8 μmol myo-inositol, 30 g of sucrose, 8 g of agar, 5.37 μmol α-naphtylacetic acid (NAA) and 0.5 μmol benzylaminopurine (BAP). Subcultivation was carried out every three weeks. Fourteen days before the bioassay, the callus tissue was transferred to the media without 6-benzylaminopurine (BAP). Biological activity was determined from the increase in fresh callus weight after four weeks of cultivation. Five replicates were prepared for each cytokinin concentration and the entire test was repeated twice. From the obtained data, the concentration with highest activity was selected for each compound tested. Relative activity of the compound at this concentration was calculated (Tab. 6). […] The cytokinins to be tested were dissolved in dimethylsulfoxide (DMSO) and the solution brought up to 10^−3M with distilled water. This stock was further diluted in the respective media used for the biotest to concentrations ranging from 10^−8M to 10^−4M.

Assay [2] has as its system human erythroleukaemia K562. Description: In vitro cytotoxic activity, Calcein AM assay, K-562. It counts as cell-based. The note with it: 72 hours, read-out: IC 50 K-562. An excerpt: (§1) One of the parameters used, as the basis for cytotoxicity assays, is the metabolic activity of viable cells. For example, a microtiter assay, which uses the Calcein AM, is now widely used to quantitate cell proliferation and cytotoxicity. For instance, this assay is used in drug screening programs and in chemosensitivity testing. Because only metabolically active cells cleave Calcein AM, these assays detect viable cells exclusively. The quantity of reduced Calcein AM corresponds to the number of vital cells in the culture.
(§2) Human T-lymphoblastic leukemia cell line CEM; promyelocytic HL-60 and monocytic U937 leukemias; breast carcinoma cell lines MCF-7; cervical carcinoma cells HELA; mouse fibroblasts NIH3T3; human erythroleukaemia K562 and human malignant melanoma cells G361 were used for routine screening of compounds. The cells were maintained in Nunc/Corning 80 cm^2 plastic tissue culture flasks and cultured in cell culture medium (DMEM with 5 g/l glucose, 2 mM glutamine, 100 U/ml penicillin, 100 μg/ml streptomycin, 10% fetal calf serum and sodium bicarbonate).
(§3) The cell suspensions that were prepared and diluted according to the particular cell type and the expected target cell density (10^4 cells per well based on cell growth characteristics) were added by pipette (80 μl) into 96/well microtiter plates. Inoculates were allowed a pre-incubation period of 24 hours at 37° C. and 5% CO2 for stabilisation. Four-fold dilutions of the intended test concentration were added at time zero in 20 μl aliquots to the microtiter plate wells. Usually, test compound was evaluated at six 4-fold dilutions. In routine testing, the highest well concentration was 166.7 μM, but it can be the matter of change dependent on the agent. All drug concentrations were examined in duplicates. Incubations of cells with the test compounds lasted for 72 hours at 37° C., in 5% CO2 atmosphere and 100% humidity. At the end of incubation period, the cells were assayed by using the Calcein AM. Ten microliters of the stock solution were pipetted into each well and incubated further for 1 hours. Fluorescence (FD) was measured with the Labsystem FIA Reader Fluoroscan Ascent (UK). The tumour cell survival (GI50) was calculated using the following equitation: GI50=(FDdrug exposed well/mean FDcontrol wells)×100%. The GI50 value, the drug concentration lethal to 50% of the tumour cells, was calculated from the obtained dose response curves (FIG. 3).

The subject of assay [3] is mouse fibroblasts NIH3T3. Description: In vitro cytotoxic activity, Calcein AM assay, NIH-3T3. The assay is classed as cell-based. As to conditions: 72 hours, read-out: IC 50 NIH-3T3.
Excerpt: as §1, §2, §3

Assay [4] deals with promyelocytic HL-60. Nature of the assay: In vitro cytotoxic activity, Calcein AM assay, HL60. It counts as cell-based, human. The note with it: 72 hours, read-out: IC 50 HL60.
Excerpt: as §1, §2, §3

Assay [5] concerns Amaranthus caudatus cotyledon/hypocotyl explants. Nature of the assay: Amaranthus bioassay (betacyanin content). The note with it: for Concentration with highest activity: 48 h dark; for Activity (%) [10^−5 mol · l^−1 BAP = 100%]: at concentration with highest activity. It counts as in vivo. On the procedure:
Standard Amaranthus bioassay was performed with several modifications. The seeds of Amaranthus caudatus var. atropurpurea were surface-sterilised in 10% N-chlorobenzenesulfonamide (w/v) for 10 min and washed 5 times in deionized water. They were placed in 15 cm Petri dishes containing paper tissues saturated with deionized water. After 72 h of cultivation at 25° C. in darkness, the roots of the seedlings were cut off. The explants, consisting of two cotyledons and hypocotyls, were placed in 5 cm Petri dishes on two layers of filter paper soaked in 1 ml of incubation medium containing 10 μmol NA2HPO4-KH2PO4, pH 6.8, 5 μmol tyrosine and the cytokinin to be tested. There were 20 explants per dish. The procedure was carried out under a green safe light in a darkroom. After a 48 h of incubation at 25° C. in darkness, betacyanin was extracted by freezing the explants in 4 ml […] acetic acid. The concentration of betacyanin was determined by comparing the absorbance at 537 nm and 620 nm as follows: ΔA=[…]-[…]. From the obtained data, the concentration with highest activity was selected for each compound tested. Relative activity of the compound at this concentration was calculated (Tab. 12). […] The values shown in table 8 are means of five replicates and the entire test was repeated twice. The cytokinins to be tested were dissolved in dimethylsulfoxide (DMSO) and the solution brought up to 10^-3M with distilled water. This stock was further diluted in the respective media used for the biotest to concentrations ranging from 10^-8M to 10^-4M. […] From the data obtained (FIG. 14) the maximum effective concentration of the tested compound was calculated as well as its relative effectiveness at this concentration (Table 12). […]

The test system of assay [6] is Triticum aestivum cv. Hereward. Nature of the assay: Senescence inhibition on winter wheat leaf segments (chlorophyll retention). The assay is classed as in vivo. The note with it: for Concentration with highest activity: chlorophyll retention in excised wheat leaf tips, 96 h dark; for Activity (%) [10^−4 mol · l^−1 BAP = 100%]: chlorophyll retention, at concentration with highest activity. On the procedure:
Seeds of winter wheat, Triticum aestivum cv. Hereward, were washed under running water for 24 hours and then sown on vermiculite soaked with Knop's solution. They were placed in the grown chamber at 15° C. with a 16/8 h light period at 50 μmol·m^−2·s^−1. After 7 days, the first leaf was fully developed and the second leaf had started to grow. A tip section of the first leaf, approximately 35 mm long, was removed from 5 seedlings and trimmed slightly to a combined weight of 100 mg. The basal ends of the five leaf tips were placed in the wells of a microtiter polystyrene plate containing 150 μl of a cytokinin solution each. The entire plate was inserted into a plastic box lined with paper tissues soaked in distilled water to prevent leaf sections from drying out. After a 96 h incubation in the dark at 25° C., the leaves were removed and chlorophyll extracted by heating at 80° C. for 10 min in 5 ml of 80% ethanol (v/v). The sample volume was then restored to 5 ml by the addition of 80% ethanol (v/v). The absorbency of the extract was recorded at 665 nm. In addition, chlorophyll extracts from fresh leaves and leaf tips incubated in deionised water were measured. From the obtained data, the concentration with highest activity was selected for each compound tested. Relative activity of the compound at this concentration was calculated (Tab. 10). The activity obtained for 10^−4 M 6-benzylaminopurine (BAP) was postulated as 100%. The values shown are means of five replicates and the whole experiment was repeated twice. The cytokinins to be tested were dissolved in dimethylsulfoxide (DMSO) and the solution brought up to 10^−3M with distilled water. This stock was further diluted in distilled water to concentrations ranging from 10^−8M to 10^−4M.

Assay [7] deals with breast carcinoma cell lines MCF-7. Nature of the assay: In vitro cytotoxic activity, Calcein AM assay, MCF7. The assay is classed as cell-based, human. The note with it: 72 hours, read-out: IC 50 MCF7.
Excerpt: as §1, §2, §3

Assay [8] concerns HOS. Nature of the assay: In vitro cytotoxic activity, Calcein AM assay, HOS. As to conditions: 72 hours. It counts as cell-based.
The subject of assay [9] is Human T-lymphoblastic leukemia cell line CEM. Nature of the assay: In vitro cytotoxic activity, Calcein AM assay, CEM. It counts as cell-based. The note with it: 72 hours.
Excerpt: as §1, §2, §3

Consider `OC[C@H]1O[C@@H](n2cnc3c(NCc4c(F)ccc(F)c4F)ncnc32)[C@H](O)[C@@H]1O` [2,3,6-trifluorobenzylamino, 6-(2,3,6-trifluorobenzylamino)purine riboside], for which the figures for the “Activity (%) [10^−5 mol · l^−1 BAP = 100%]” value in assay [1] and in assay [5] were 92 ± 2% and 94 ± 1%, respectively. Also, the “Concentration with highest activity” value in assay [1] is on record as 10^−5 mol · l^−1; in [5], 10^−4 mol · l^−1; in assay [6], 10^−4 mol · l^−1. Moreover, the IC50 was above 167 µM in [2]; above 167 µM in assay [3]; 13 µM in [4]; above 167 µM in assay [7]; above 167 µM in assay [8]. Besides, in assay [6], the “Activity (%) [10^−4 mol · l^−1 BAP = 100%]” value was found to be 133 ± 14%.
For `OC[C@H]1O[C@@H](n2cnc3c(NCc4ccccc4Br)ncnc32)[C@H](O)[C@@H]1O` [2-bromobenzylamino, 6-(2-bromobenzylamino)purine riboside], the “Activity (%) [10^−5 mol · l^−1 BAP = 100%]” value in [1] was determined as 100 ± 4%; in [5] it was 147 ± 7%. Also, the figures for the “Concentration with highest activity” value in assay [1], in assay [5] and in assay [6] were 10^−5 mol · l^−1, 10^−4 mol · l^−1 and 10^−5 mol · l^−1, respectively. The IC50 in assay [2] is 10 µM; in [3], above 167 µM; in [4], 6.6 µM; in assay [7], above 167 µM; in assay [9] it was 12.3 µM; in [8], above 167 µM. In addition, in assay [6], the “Activity (%) [10^−4 mol · l^−1 BAP = 100%]” value amounted to 86 ± 19%.
On to `OC[C@H]1O[C@@H](n2cnc3c(NCc4cc(F)cc(F)c4)ncnc32)[C@H](O)[C@@H]1O` [3,5-difluorobenzylamino, 6-(3,5-difluorobenzylamino)purine riboside], for which the “Activity (%) [10^−5 mol · l^−1 BAP = 100%]” value in [1] came to 95 ± 3%; in assay [5], 88 ± 1%. For the same compound, the figures for the “Concentration with highest activity” value in assay [1], in [5] and in assay [6] were 10^−6 mol · l^−1, 10^−4 mol · l^−1 and 10^−4 mol · l^−1, respectively. Also, the IC50 in assay [2] was above 167 µM; in assay [3], above 167 µM; in assay [4], 9.1 µM; in assay [7], above 167 µM; in assay [9] it was 24.5 µM; in assay [8], above 167 µM. Besides, the “Activity (%) [10^−4 mol · l^−1 BAP = 100%]” value in assay [6] worked out at 195 ± 14%.
As to `OC[C@H]1O[C@@H](n2cnc3c(NCc4ccc(F)c(Cl)c4)ncnc32)[C@H](O)[C@@H]1O` [3-chloro-4-fluorobenzylamino, 6-(3-chloro-4-fluorobenzylamino)purine riboside], the “Activity (%) [10^−5 mol · l^−1 BAP = 100%]” value in assay [1] is reported as 87 ± 4%; in [5], 82 ± 5%. In addition, the “Concentration with highest activity” value in assay [1] is listed as 10^−6 mol · l^−1; in assay [5] it was 10^−4 mol · l^−1; in [6], 10^−4 mol · l^−1. Moreover, the IC50 in assay [2] was 4.1 µM; in assay [3] it was above 167 µM; in assay [4] it was 3.5 µM; in assay [7], above 167 µM; in assay [9] it was 3.4 µM; in assay [8] it was above 167 µM. Further, in assay [6], the “Activity (%) [10^−4 mol · l^−1 BAP = 100%]” value is 156 ± 10%.
In the case of `OC[C@H]1O[C@@H](n2cnc3c(NCc4ccc(Br)cc4)ncnc32)[C@H](O)[C@@H]1O` [4-bromobenzylamino, 6-(4-bromobenzylamino)purine riboside], the “Activity (%) [10^−5 mol · l^−1 BAP = 100%]” value in [1] came out at 15 ± 11%; in [5], 30 ± 8%. The entries for the “Concentration with highest activity” value in assay [1], in [5] and in [6] were 10^−6 mol · l^−1, 10^−5 mol · l^−1 and 10^−4 mol · l^−1, respectively. Besides, the IC50 in assay [2] is 68.2 µM; in assay [3] it was above 167 µM; in [4], 47.4 µM; in assay [7], above 167 µM; in assay [9] it was 20.6 µM; in [8] it was above 167 µM. The “Activity (%) [10^−4 mol · l^−1 BAP = 100%]” value in assay [6] is recorded as 76 ± 11%.
As to `Cc1ccc(CNc2ncnc3c2ncn3[C@@H]2O[C@H](CO)[C@@H](O)[C@H]2O)cc1` [4-methylbenzylamino, 6-(4-methylbenzylamino)purine riboside], the entries for the “Activity (%) [10^−5 mol · l^−1 BAP = 100%]” value in [1] and in assay [5] were 95 ± 6% and 32 ± 7%, respectively. Moreover, the figures for the “Concentration with highest activity” value in assay [1], in assay [5] and in assay [6] were 10^−6 mol · l^−1, 10^−5 mol · l^−1 and 10^−4 mol · l^−1, respectively. For the same compound, the IC50 in assay [2], in [3], in assay [4], in assay [7], in assay [9] and in assay [8] was above 167 µM each time. Further, the “Activity (%) [10^−4 mol · l^−1 BAP = 100%]” value in [6] was determined as 55 ± 5%.
